Reference: PubChem BioAssay AID286 (DTP/NCI, 2004)
Values joined by “and” are separate entries in the source; they are usually repeats but may differ in a detail not shown here. Equal entries are not always repeated. Inconclusive results and toxic doses are left out. Starred links: 1 amine or outer side, 2 acyl side, 3 side chain; linkers in the order of their positions; H or OH if unused. Positions of bridges follow the written chain, without caps; N, C: chain ends. Non-standard residues stand in square brackets, D forms with d. Residues, ends and D or L forms follow the SMILES beside them. Chains are numbered I, II in the order given. Actinocin(9to1) = Cc1c2oc3c(C)ccc(C(=O)[*:1])c3nc-2c(C(=O)[*:2])c(N)c1=O; aThr = C[C@H](O)[C@H](N)C(=O)O; NMeV = CN[C@H](C(=O)O)C(C)C; Sar = CNCC(=O)O

System: BDF1 mice, M5076 sarcoma ip, median survival T/C
Assay: NCI In Vivo Anticancer Drug Screen. Data for tumor model Sarcoma M5076 (intraperitoneal) in B6D2F1 (BDF1) mice
Conditions: endpoint: median survival time, higher = longer survival
Experimental: The antitumor activity of compounds was measured in mice bearing transplantable tumors. Survival or tumor size were measured and the results are expressed as the measurement made in the treated group (T) divided by the measurement made in the vehicle treated control group (C). The tumor model used in this assay is Sarcoma M5076 (intraperitoneal) in B6D2F1 (BDF1) mice

[1] = dose: 50.0 mg/kg/injection, schedule: Q04DX004 (ip), vehicle: saline with Tween-80
[2] = dose: 100.0 mg/kg/injection, schedule: Q04DX004 (ip), vehicle: saline with Tween-80
[3] = dose: 200.0 mg/kg/injection, schedule: Q04DX004 (ip), vehicle: saline with Tween-80
[4] = dose: 400.0 mg/kg/injection, schedule: Q04DX004 (ip), vehicle: saline with Tween-80
[5] = dose: 1.56 mg/kg/injection, schedule: Q01DX009 (ip), vehicle: Klucel (hydroxypropylcellulose) (HPC)

CC1=C[P+](c2ccccc2)(c2ccccc2)C=C(c2ccccc2)O1
T/C (dose: 1.25 mg/kg/injection, schedule: Q04DX004 (ip), vehicle: saline + alcohol): 99 % of control
T/C (dose: 2.5 mg/kg/injection, schedule: Q04DX004 (ip), vehicle: saline + alcohol): 107 % of control
T/C (dose: 5.0 mg/kg/injection, schedule: Q04DX004 (ip), vehicle: saline + alcohol): 118 % of control

O=C1c2ccccc2C(Cl)(c2ccc(Cl)cc2)c2ccc(Cl)cc21 (stereo unspecified)
T/C [1]: 116 % of control
T/C [2]: 107 % of control
T/C [3]: 108 % of control
T/C [4]: 100 % of control

COC1CC2C=C(C)/C=C/C=C/C(=O)NC(c3ccccc3)C/C=C/CCC(O)CC(=O)C2=C1O (stereo unspecified)
T/C [5]: 115 % of control

Cc1c2oc3c(C)ccc(C(=O)N[C@@H]4C(=O)N[C@H](C(C)C)C(=O)N5CCC[C@H]5C(=O)N(C)CC(=O)N(C)[C@@H](C(C)C)C(=O)O[C@H]4C)c3nc-2c(C(=O)N[C@@H]2C(=O)N[C@H](C(C)C)C(=O)N3CCC[C@H]3C(=O)N(C)CC(=O)N(C)[C@@H](C(C)C)C(=O)O[C@H]2C)c(N)c1=O (I: [aThr][dV]P[Sar][NMeV] / II: [aThr][dV]P[Sar][NMeV]; ester I:1-I:C, II:1-II:C; linker I:N-II:N via Actinocin(9to1))
T/C (dose: 0.1 mg/kg/injection, schedule: Q04DX004 (ip), vehicle: saline + alcohol): 165 % of control
T/C (dose: 0.2 mg/kg/injection, schedule: Q04DX004 (ip), vehicle: saline + alcohol): 178 % of control

CCN(CC)CCNc1ccc(C)c2sc3ccccc3c(=O)c12
T/C (dose: 5.0 mg/kg/injection, schedule: Q04DX004 (ip), vehicle: water): 113 % of control
T/C (dose: 10.0 mg/kg/injection, schedule: Q04DX004 (ip), vehicle: water): 112 % of control
T/C (dose: 20.0 mg/kg/injection, schedule: Q04DX004 (ip), vehicle: water): 103 % of control
T/C (dose: 40.0 mg/kg/injection, schedule: Q04DX004 (ip), vehicle: water): 112 % of control
T/C (dose: 160.0 mg/kg/injection, schedule: Q04DX004 (ip), vehicle: water): 108 % of control

O=C(O)C1(C(=O)O)CCC1.[NH2-].[NH2-].[Pt+2]
T/C (dose: 15.6 mg/kg/injection, schedule: Q04DX005 (ip), vehicle: water): 186 % of control
T/C (dose: 25.92 mg/kg/injection, schedule: Q04DX005 (ip), vehicle: water): 182 % of control
T/C (dose: 43.2 mg/kg/injection, schedule: Q04DX005 (ip), vehicle: water): 194 % of control
T/C (dose: 72.0 mg/kg/injection, schedule: Q04DX005 (ip), vehicle: water): 220 % of control
T/C (dose: 120.0 mg/kg/injection, schedule: Q04DX005 (ip), vehicle: water): 275 % of control

CC[C@](O)(C(=O)O)c1cc2n(c(=O)c1CO)Cc1cc3ccccc3nc1-2
T/C (dose: 12.5 mg/kg/injection, schedule: Q04DX004 (ip), vehicle: saline): 124 % of control

CC[N+](CC)(CC)CC
T/C (dose: 10.8 mg/kg/injection, schedule: Q04DX005 (ip), vehicle: saline with Tween-80): 172 % of control

Cc1c2ccccc2c(C)c2c1cc(C(=O)O)c1ccccc12
T/C (dose: 25.0 mg/kg/injection, schedule: Q04DX004 (ip), vehicle: sodium bicarbonate): 109 % of control
T/C (dose: 100.0 mg/kg/injection, schedule: Q04DX004 (ip), vehicle: sodium bicarbonate): 110 % of control
T/C (dose: 200.0 mg/kg/injection, schedule: Q04DX004 (ip), vehicle: sodium bicarbonate): 116 % of control
T/C (dose: 400.0 mg/kg/injection, schedule: Q04DX004 (ip), vehicle: sodium bicarbonate): 110 % of control

O=c1n(CC2CO2)c(=O)n(CC2CO2)c(=O)n1CC1CO1 (stereo unspecified)
T/C (dose: 13.0 mg/kg/injection, schedule: Q04DX005 (ip), vehicle: saline): 191 % of control
T/C (dose: 21.6 mg/kg/injection, schedule: Q04DX005 (ip), vehicle: saline): 270 % of control
T/C (dose: 36.0 mg/kg/injection, schedule: Q04DX005 (ip), vehicle: saline): 377 % of control
T/C (dose: 60.0 mg/kg/injection, schedule: Q04DX005 (ip), vehicle: saline): 377 % of control

CCC(C)C(N)C(=O)NC(CC(N)=O)C(=O)NC(CC(C)C)C(=O)NC(CCCCN)C(=O)NC(C)C(=O)NC(CC(C)C)C(=O)NC(C)C(=O)NC(C)C(=O)NC(CC(C)C)C(=O)NC(C)C(=O)NC(CCCCN)C(=O)NC(CCCCN)C(=O)NC(C(=O)NC(CC(C)C)C(N)=O)C(C)CC (stereo unspecified)
T/C [5]: 95 % of control
T/C (dose: 3.12 mg/kg/injection, schedule: Q01DX009 (ip), vehicle: Klucel (hydroxypropylcellulose) (HPC)): 101 % of control
T/C (dose: 6.25 mg/kg/injection, schedule: Q01DX009 (ip), vehicle: Klucel (hydroxypropylcellulose) (HPC)): 96 % of control
T/C (dose: 12.5 mg/kg/injection, schedule: Q01DX009 (ip), vehicle: Klucel (hydroxypropylcellulose) (HPC)): 98 % of control

Nc1ccn(C2OC(CO)C(O)C2O)c(=O)n1 (stereo unspecified)
T/C (dose: 125.0 mg/kg/injection, schedule: Q04DX005 (ip), vehicle: saline): 164 % of control
T/C (dose: 250.0 mg/kg/injection, schedule: Q04DX005 (ip), vehicle: saline): 184 % of control
T/C (dose: 500.0 mg/kg/injection, schedule: Q04DX005 (ip), vehicle: saline): 185 % of control
T/C (dose: 1000.0 mg/kg/injection, schedule: Q04DX005 (ip), vehicle: saline): 199 % of control

Cc1nc(C(Cl)(Cl)Cl)[nH]c(=O)c1SCCO
T/C (dose: 50.0 mg/kg/injection, schedule: Q04DX004 (ip), vehicle: distilled water + alcohol): 101 % of control
T/C (dose: 100.0 mg/kg/injection, schedule: Q04DX004 (ip), vehicle: distilled water + alcohol): 93 % of control
T/C (dose: 200.0 mg/kg/injection, schedule: Q04DX004 (ip), vehicle: distilled water + alcohol): 94 % of control
T/C (dose: 400.0 mg/kg/injection, schedule: Q04DX004 (ip), vehicle: distilled water + alcohol): 96 % of control

C=C1C(O)C2OC3(CCC(/C=C/C(C)C4CC5(C)SC5C5(OC(CC(C)(O)C(=O)O)CCC5O)O4)O3)CCC2OC1C(O)CC(C)C1OC2(CCCCO2)CCC1C (stereo unspecified)
T/C (dose: 0.5 micrograms/kg/injection, schedule: Q01DX009 (ip), vehicle: saline + alcohol): 108 % of control
T/C (dose: 1.0 micrograms/kg/injection, schedule: Q01DX009 (ip), vehicle: saline + alcohol): 111 % of control
T/C (dose: 2.0 micrograms/kg/injection, schedule: Q01DX009 (ip), vehicle: saline + alcohol): 120 % of control
T/C (dose: 2.5 micrograms/kg/injection, schedule: Q01DX009 (ip), vehicle: saline + alcohol): 155 % of control

OC(CBr)C(O)C(O)C(O)CBr (stereo unspecified)
T/C [1]: 111 % of control
T/C [2]: 114 % of control
T/C (dose: 108.0 mg/kg/injection, schedule: Q04DX005 (ip), vehicle: saline with Tween-80): 122 % of control
T/C [3]: 114 % of control
T/C [4]: 114 % of control
T/C (dose: 500.0 mg/kg/injection, schedule: Q04DX005 (ip), vehicle: saline with Tween-80): 176 % of control
T/C (dose: 800.0 mg/kg/injection, schedule: Q04DX004 (ip), vehicle: saline with Tween-80): 108 % of control
T/C (dose: 833.0 mg/kg/injection, schedule: Q04DX005 (ip), vehicle: saline with Tween-80): 176 % of control

CCC1(O)CC2CN(CCc3c([nH]c4ccccc34)C(C(=O)OC)(c3cc4c(cc3OC)N(C)C3C(O)(C(N)=O)C(O)C5(CC)C=CCN6CCC43C65)C2)C1 (stereo unspecified) (tested in a mixture with another compound)
T/C (dose: 0.5 mg/kg/injection, schedule: Q04DX005 (ip), vehicle: saline): 208 % of control
T/C (dose: 1.0 mg/kg/injection, schedule: Q04DX005 (ip), vehicle: saline): 208 % of control

COc1cc2cc3c(c(O)c2c(O)c1/C=C/C(C)C)C(=O)CC(C)(OC(C)=O)C3 (stereo unspecified)
T/C (dose: 0.31 mg/kg/injection, schedule: Q01DX009 (ip), vehicle: Klucel (hydroxypropylcellulose) (HPC)): 111 % of control
T/C (dose: 0.63 mg/kg/injection, schedule: Q01DX009 (ip), vehicle: Klucel (hydroxypropylcellulose) (HPC)): 108 % of control and 115 % of control
T/C (dose: 1.25 mg/kg/injection, schedule: Q01DX009 (ip), vehicle: Klucel (hydroxypropylcellulose) (HPC)): 111 % of control and 119 % of control

CN(C)CCN1C(=O)c2cccc3cc(N)cc(c23)C1=O
T/C (dose: 4.5 mg/kg/injection, schedule: Q04DX004 (ip), vehicle: acid diluted with saline): 109 % of control
T/C (dose: 9.0 mg/kg/injection, schedule: Q04DX004 (ip), vehicle: acid diluted with saline): 107 % of control
T/C (dose: 18.0 mg/kg/injection, schedule: Q04DX004 (ip), vehicle: acid diluted with saline): 115 % of control

COC1N(C2CC(O)C(CO)O2)C(=O)NC(=O)C1(F)Br (stereo unspecified)
T/C (dose: 25.0 mg/kg/injection, schedule: Q04DX004 (ip), vehicle: saline): 110 % of control
T/C (dose: 50.0 mg/kg/injection, schedule: Q04DX004 (ip), vehicle: saline): 115 % of control
T/C (dose: 100.0 mg/kg/injection, schedule: Q04DX004 (ip), vehicle: saline): 116 % of control
T/C (dose: 400.0 mg/kg/injection, schedule: Q04DX004 (ip), vehicle: saline): 124 % of control
